Assay results: ChEMBL document CHEMBL5550160, “Leveraging a rationally designed veliparib-based anilide eliciting anti-leukemic effects for the design of pH-responsive polymer nanoformulation” (Eur J Med Chem, 2024)
The source made the active and inactive calls. The rule behind the calls is not given here.

Key:
[1] = molecular target: Histone deacetylase 4 (Homo sapiens) (UniProt P56524); assay: Inhibition of HDAC4 (unknown origin) assessed as residual activity at 1 x 10^-5M (reference value: 98.90%); conditions: dose 1.0 10^-5M
[2] = molecular target: Histone deacetylase 5 (Homo sapiens) (UniProt Q9UQL6); assay: Inhibition of HDAC5 (unknown origin) assessed as residual activity at 1.52 x 10^-9M (reference value: 100%); conditions: dose 1.52 10^-9M
PC-3 = assay: cells; type: functional, cell-based; conditions: Homo sapiens
Description: Antiproliferative activity against human PC-3 cells assessed as inhibition of cell growth by MTT assay

[3] = molecular target: T1, Histone deacetylase 7 (Homo sapiens) (UniProt Q8WUI4); assay: Inhibition of HDAC7 (unknown origin) assessed as residual activity at 1.23 x 10^-7M (reference value: 102.66%); conditions: dose 1.23 10^-7M
T1 sequence (whole entry): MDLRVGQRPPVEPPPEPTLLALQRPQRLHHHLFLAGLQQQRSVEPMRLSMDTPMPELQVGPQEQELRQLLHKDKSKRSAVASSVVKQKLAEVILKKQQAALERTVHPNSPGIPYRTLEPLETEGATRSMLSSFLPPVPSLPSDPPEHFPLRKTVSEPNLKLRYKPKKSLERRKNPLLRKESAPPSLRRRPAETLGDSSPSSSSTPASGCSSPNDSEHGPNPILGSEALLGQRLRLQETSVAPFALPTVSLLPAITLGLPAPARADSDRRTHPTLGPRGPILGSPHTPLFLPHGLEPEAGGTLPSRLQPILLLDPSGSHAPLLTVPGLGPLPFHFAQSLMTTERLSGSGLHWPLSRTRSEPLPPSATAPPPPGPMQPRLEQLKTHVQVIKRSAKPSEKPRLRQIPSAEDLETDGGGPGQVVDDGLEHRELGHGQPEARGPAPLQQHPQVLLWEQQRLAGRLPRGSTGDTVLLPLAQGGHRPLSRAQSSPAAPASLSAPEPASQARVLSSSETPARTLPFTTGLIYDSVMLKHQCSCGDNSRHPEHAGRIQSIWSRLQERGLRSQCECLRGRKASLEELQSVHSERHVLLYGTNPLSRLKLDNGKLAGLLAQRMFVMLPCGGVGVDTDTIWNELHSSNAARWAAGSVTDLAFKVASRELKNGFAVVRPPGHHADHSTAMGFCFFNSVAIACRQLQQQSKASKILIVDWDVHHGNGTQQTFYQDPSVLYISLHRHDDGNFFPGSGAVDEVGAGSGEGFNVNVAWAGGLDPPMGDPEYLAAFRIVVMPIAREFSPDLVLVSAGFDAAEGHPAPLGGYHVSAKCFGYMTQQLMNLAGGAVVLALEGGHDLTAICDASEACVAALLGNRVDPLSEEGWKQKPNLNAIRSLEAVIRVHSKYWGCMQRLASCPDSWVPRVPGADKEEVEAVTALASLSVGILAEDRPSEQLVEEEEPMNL

Histone deacetylase 2 = Histone deacetylase 2 (Homo sapiens, UniProt Q92769); assay: Inhibition of HDAC2 (unknown origin) assessed as residual activity at 1 x 10^-5M (reference value: 99.81%); conditions: dose 1.0 10^-5M
HL-60 [4] = assay: Induction of cell cycle arrest in G0/G1 phase in human HL-60 cells assessed as downregulation of p-AKT protein expression at 0.5 to 1 times IC50 by Western blot analysis; type: functional, cell-based
[5] = molecular target: Histone deacetylase 4 (Homo sapiens) (UniProt P56524); assay: Inhibition of HDAC4 (unknown origin) assessed as residual activity at 3.70 x 10^-7M (reference value: 98.90%); conditions: dose 3.7 10^-7M
[6] = molecular target: T2, Polyamine deacetylase HDAC10 (Homo sapiens) (UniProt Q969S8); assay: Inhibition of HDAC10 (unknown origin) assessed as residual activity at 1.23 x 10^-7M (reference value: 101.54%); conditions: dose 1.23 10^-7M
T2 sequence (whole entry): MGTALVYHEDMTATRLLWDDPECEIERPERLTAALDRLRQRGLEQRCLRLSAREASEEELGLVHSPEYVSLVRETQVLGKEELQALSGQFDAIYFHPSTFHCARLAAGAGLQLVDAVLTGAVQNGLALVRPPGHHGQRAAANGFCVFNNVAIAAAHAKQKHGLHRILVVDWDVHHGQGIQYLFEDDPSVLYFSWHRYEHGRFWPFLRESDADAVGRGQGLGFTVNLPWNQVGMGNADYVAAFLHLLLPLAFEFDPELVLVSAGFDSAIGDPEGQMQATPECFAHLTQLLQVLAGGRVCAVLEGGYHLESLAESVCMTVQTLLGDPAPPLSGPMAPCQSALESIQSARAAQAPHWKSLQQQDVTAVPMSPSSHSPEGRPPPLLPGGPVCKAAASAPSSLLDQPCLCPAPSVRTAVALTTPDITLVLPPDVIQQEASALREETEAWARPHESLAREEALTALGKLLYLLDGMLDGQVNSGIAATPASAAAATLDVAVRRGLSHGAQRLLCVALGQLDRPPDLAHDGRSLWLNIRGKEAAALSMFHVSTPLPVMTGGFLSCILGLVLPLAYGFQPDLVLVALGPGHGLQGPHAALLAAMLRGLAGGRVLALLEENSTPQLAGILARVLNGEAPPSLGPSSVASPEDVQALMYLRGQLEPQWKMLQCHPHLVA

HL-60 [7] = assay: Induction of autophagy in human HL-60 cells assessed as conversion of LC3-I to LC3-II at 0.5 to 1 times IC50 by Western blot analysis; type: functional, cell-based
[8] = molecular target: T3, Histone deacetylase 8 (Homo sapiens) (UniProt Q9BY41); assay: Inhibition of HDAC8 (unknown origin) assessed as residual activity at 4.57 x 10^-9M (reference value: 100%); conditions: dose 4.57 10^-9M
T3 sequence (whole entry): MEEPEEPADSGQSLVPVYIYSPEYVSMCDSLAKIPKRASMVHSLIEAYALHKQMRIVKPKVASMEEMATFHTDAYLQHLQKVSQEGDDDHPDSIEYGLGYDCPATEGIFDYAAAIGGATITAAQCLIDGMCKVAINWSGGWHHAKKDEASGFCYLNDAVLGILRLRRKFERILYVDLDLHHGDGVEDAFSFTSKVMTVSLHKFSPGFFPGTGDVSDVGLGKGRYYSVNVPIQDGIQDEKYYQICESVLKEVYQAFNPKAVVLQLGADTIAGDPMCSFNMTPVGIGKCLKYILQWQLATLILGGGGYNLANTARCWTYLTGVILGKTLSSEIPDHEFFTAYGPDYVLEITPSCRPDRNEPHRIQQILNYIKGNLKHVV

[9] = molecular target: Histone deacetylase 5 (Homo sapiens) (UniProt Q9UQL6); assay: Inhibition of HDAC5 (unknown origin) assessed as residual activity at 4.57 x 10^-9M (reference value: 100%); conditions: dose 4.57 10^-9M
HL-60 [10] = assay: Induction of apoptosis in human HL-60 cells assessed as chromatin condensation at 0.5 to 1 times IC50 by DAPI staining based microscopic analysis; type: functional, cell-based
HL-60 [11] = assay: Induction of apoptosis in human HL-60 cells assessed as cell blebbing at 0.5 to 1 times IC50 by DAPI staining based microscopic analysis; type: functional
[12] = molecular target: Histone deacetylase 5 (Homo sapiens) (UniProt Q9UQL6); assay: Inhibition of HDAC5 (unknown origin) assessed as residual activity at 1.23 x 10^-7M (reference value: 100%); conditions: dose 1.23 10^-7M

Sequence of Histone deacetylase 5 (Homo sapiens) (Q9UQL6 whole entry): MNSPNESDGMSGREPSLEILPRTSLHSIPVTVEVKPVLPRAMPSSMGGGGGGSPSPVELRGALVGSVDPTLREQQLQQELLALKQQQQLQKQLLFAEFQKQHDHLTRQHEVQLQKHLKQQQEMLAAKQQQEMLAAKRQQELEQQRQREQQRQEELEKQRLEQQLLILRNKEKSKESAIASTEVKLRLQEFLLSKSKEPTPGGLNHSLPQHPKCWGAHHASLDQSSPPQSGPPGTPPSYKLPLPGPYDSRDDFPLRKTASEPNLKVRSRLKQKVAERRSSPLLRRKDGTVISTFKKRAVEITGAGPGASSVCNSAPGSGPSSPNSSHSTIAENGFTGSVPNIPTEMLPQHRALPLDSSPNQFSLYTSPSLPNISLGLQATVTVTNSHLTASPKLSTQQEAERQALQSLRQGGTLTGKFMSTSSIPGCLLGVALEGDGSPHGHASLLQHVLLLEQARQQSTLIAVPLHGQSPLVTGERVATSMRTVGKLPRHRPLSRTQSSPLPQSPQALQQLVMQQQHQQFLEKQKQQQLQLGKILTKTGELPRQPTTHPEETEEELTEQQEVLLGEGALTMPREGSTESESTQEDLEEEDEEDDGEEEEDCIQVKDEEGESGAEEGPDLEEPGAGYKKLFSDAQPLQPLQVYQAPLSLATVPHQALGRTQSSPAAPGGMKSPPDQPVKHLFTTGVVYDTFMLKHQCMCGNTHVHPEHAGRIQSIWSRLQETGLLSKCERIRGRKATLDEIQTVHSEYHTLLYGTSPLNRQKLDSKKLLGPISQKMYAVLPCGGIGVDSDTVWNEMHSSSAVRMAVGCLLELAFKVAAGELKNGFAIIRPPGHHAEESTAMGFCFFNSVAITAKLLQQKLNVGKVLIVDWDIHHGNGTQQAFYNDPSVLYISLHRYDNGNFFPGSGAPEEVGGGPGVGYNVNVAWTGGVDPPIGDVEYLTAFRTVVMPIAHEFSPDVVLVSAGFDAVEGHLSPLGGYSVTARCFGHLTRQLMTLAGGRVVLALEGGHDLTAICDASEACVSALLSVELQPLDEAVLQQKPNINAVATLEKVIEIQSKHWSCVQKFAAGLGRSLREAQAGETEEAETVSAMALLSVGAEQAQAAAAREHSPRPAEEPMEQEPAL
Sequence of Histone deacetylase 4 (Homo sapiens) (P56524 whole entry): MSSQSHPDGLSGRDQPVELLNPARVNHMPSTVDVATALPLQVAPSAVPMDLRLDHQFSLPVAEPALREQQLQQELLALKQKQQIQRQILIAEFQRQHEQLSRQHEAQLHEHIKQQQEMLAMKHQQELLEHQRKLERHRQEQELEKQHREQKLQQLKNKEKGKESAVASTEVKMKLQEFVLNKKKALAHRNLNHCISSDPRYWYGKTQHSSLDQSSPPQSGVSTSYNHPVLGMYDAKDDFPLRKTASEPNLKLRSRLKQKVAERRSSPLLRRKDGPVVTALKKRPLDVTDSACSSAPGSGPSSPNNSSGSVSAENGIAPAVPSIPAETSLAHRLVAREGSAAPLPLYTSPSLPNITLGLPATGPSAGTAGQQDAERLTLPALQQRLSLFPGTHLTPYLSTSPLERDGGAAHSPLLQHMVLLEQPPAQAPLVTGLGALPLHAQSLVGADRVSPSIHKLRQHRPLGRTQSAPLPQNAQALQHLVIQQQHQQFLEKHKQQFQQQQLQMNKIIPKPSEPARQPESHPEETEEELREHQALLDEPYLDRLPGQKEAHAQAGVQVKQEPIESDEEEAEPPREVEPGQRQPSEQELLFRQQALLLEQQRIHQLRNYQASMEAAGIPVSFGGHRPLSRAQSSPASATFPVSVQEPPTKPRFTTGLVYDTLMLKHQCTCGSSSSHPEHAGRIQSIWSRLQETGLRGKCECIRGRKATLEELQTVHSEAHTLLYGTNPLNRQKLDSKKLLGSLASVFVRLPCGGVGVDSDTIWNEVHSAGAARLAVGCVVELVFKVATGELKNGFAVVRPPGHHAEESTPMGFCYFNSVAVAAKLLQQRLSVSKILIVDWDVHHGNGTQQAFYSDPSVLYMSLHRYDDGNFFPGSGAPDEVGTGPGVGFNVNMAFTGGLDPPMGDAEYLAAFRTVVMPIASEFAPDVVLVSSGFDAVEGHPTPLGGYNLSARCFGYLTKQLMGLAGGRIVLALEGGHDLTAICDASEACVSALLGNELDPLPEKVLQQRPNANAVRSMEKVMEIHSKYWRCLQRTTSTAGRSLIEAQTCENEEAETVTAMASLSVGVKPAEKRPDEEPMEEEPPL
Sequence of Histone deacetylase 2 (Q92769 whole entry): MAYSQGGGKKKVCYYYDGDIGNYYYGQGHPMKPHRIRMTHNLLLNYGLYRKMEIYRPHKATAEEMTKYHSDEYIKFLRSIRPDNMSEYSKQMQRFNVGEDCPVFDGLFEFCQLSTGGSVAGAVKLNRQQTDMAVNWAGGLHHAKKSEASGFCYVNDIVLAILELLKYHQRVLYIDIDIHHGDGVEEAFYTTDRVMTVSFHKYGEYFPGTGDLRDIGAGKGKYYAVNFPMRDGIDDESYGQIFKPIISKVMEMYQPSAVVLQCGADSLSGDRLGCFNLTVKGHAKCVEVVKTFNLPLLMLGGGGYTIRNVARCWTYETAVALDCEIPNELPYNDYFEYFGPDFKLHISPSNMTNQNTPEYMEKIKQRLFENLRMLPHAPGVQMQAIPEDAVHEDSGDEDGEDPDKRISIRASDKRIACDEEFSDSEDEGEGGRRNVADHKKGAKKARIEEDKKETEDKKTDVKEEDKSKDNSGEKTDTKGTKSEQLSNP

NC(=O)c1cccc2[nH]c(-c3ccc(NCc4ccc(C(=O)Nc5ccccc5N)cc4)cc3)nc12
Activity [1]: 127%
Activity [2]: 80.1%
IC50 (PC-3): 4.01 µM
Activity [3]: 89.1%
Activity (Histone deacetylase 2): 7.52%
Activity (HL-60 [4]): Active
Activity [5]: 108%
Activity [6]: 101%
Activity (HL-60 [7]): Dose-Dependent Effect
Activity [8]: 103%
Activity [9]: 82.1%
Activity (HL-60 [10]): inactive
Activity (HL-60 [11]): inactive
Activity [12]: 89.6%
